# In patent US8828674B2, “Functional identification of proteins underlying Icrac activity in a cell” (The Queen's Medical Center, priority 2007, dated 2014):
# Assays:
# [1] = biological target: T1, CRACM3 (Homo sapiens, UniProt Q9BRQ5)
# Method: Patch-clamp experiments were performed in the tight-seal whole-cell configuration at 21-25° C. High-resolution current recordings were acquired using the EPC-9 (HEKA). Voltage ramps of 50 ms duration spanning a range of −150 to +150 mV were delivered from a holding potential of 0 mV at a rate of 0.5 Hz over a period of 100-300 sec. All voltages were corrected for a liquid junction potential of 10 mV. Currents were filtered at 2.9 kHz and digitized at 100 μs intervals. Capacitive currents were determined and corrected before each voltage ramp. Extracting the current amplitude at −80 mV from individual ramp current records assessed the low-resolution temporal development of currents. Where applicable, statistical errors of averaged data are given as means± S.E.M. with n determinations. Standard external solutions were as follows (in mM): 120 NaCl, 2 MgCl2, 10 CaCl2, 10 TEA-Cl, 10 HEPES, 10 glucose, pH 7.2 with NaOH, 300 mOsm. In some experiments, Na^+-free solutions were applied, where NaCl was replaced equimolarly by tetraethylammonium-chloride (TEA-Cl). For Ca^2+-free external solutions CaCl2 was omitted, but Mg^2+ was retained. […] In the experiments of FIG. 2, 10 mM EGTA was used and in FIG. 3, [Ca^2+]i was buffered to defined levels using 20 mM Cs-BAPTA and appropriate concentrations of CaCl2 as calculated with WebMaxC. […]
# [2] = biological target: CRACM1-E190A (Homo sapiens, UniProt Q96D31, E190A)
# Method: (§1) Patch-clamp experiments were performed in the tight-seal whole-cell configuration at 21-25° C. High-resolution current recordings were acquired using the EPC-9 (HEKA). Voltage ramps of 50 ms duration spanning a range of −150 to +150 mV were delivered from a holding potential of 0 mV at a rate of 0.5 Hz over a period of 100-300 sec. All voltages were corrected for a liquid junction potential of 10 mV. Currents were filtered at 2.9 kHz and digitized at 100 μs intervals. Capacitive currents were determined and corrected before each voltage ramp. Extracting the current amplitude at −80 mV from individual ramp current records assessed the low-resolution temporal development of currents. Where applicable, statistical errors of averaged data are given as means± S.E.M. with n determinations. Standard external solutions were as follows (in mM): 120 NaCl, 2 MgCl2, 10 CaCl2, 10 TEA-Cl, 10 HEPES, 10 glucose, pH 7.2 with NaOH, 300 mOsm. In some experiments, Na^+-free solutions were applied, where NaCl was replaced equimolarly by tetraethylammonium-chloride (TEA-Cl). For Ca^2+-free external solutions CaCl2 was omitted, but Mg^2+ was retained. The divalent-free external solution (DVF) was based on the standard external solution but in the absence of CaCl2 and MgCl2 and additionally supplemented with 10 mM EDTA. Divalent replacement solutions were based on the standard external solution but with 10 mM CaCl2 replaced by 10 mM BaCl2. […] Standard internal solutions were as follows (in mM): 120 Cs-glutamate, 20 Cs-BAPTA, 3 MgCl2, 10 HEPES, 0.02 IP3, pH 7.2 with CsOH, 300 mOsm. In the experiments of FIG. 2, 10 mM EGTA was used and in FIG. 3, [Ca^2+]i was buffered to defined levels using 20 mM Cs-BAPTA and appropriate concentrations of CaCl2 as calculated with WebMaxC. For passive-depletion experiments, IP3 was omitted from the internal solution. All chemicals were purchased from Sigma-Aldrich Co.
# [3] = biological target: CRACM1-E106D (Homo sapiens, UniProt Q96D31, E106D)
# Method: as §1
# [4] = biological target: T1, CRACM3; remark: listed apart in the source
# Method: (§2) To assess the functional properties of CRACM proteins, all three CRACM species were overexpressed in HEK293 cells. CRAC currents were measured in response to rapid Ca2+ store depletion by 20 μM inositol 1,4,5-trisphosphate (IP3) as well as following passive store depletion by perfusing cells with 20 mM BAPTA, which results in a slower store depletion that relies on Ca2+ leaking from stores. Full length human CRACM1 (accession no. NM_032790) and CRACM1-E106Q were subcloned as described. Full length human CRACM2 (accession no. NM_032831) and CRACM3 (accession no. NM_152288) were amplified from cDNAs (purchased from Origene) using high fidelity Pfu Ultra High Fidelity polymerase (Stratagene) and subcloned into pCAGGS-IRES-GFP vector. […] CRACM proteins were over-expressed in HEK293 cells stably expressing STIM1 using lipofectamine 2000 (Invitrogen) and the GFP expressing cells were selected by fluorescence.
# as §1
# Normally, CRAC currents are highly Ca^2+-selective and poorly permeable to K^+ or Cs^+, resulting in positive reversal potentials.
# The monovalent versus divalent cation permeation was investigated in ion substitution experiments, where either Ca^2+ was removed from the extracellular solution or Na^+ was replaced by TEA.
# [5] = biological target: CRACM1 (Homo sapiens, UniProt Q96D31); conditions: without STIM1 overexpression
# Method: as §2, with “described.” for “described. Full length human CRACM2 (accession no. NM_032831) and CRACM3 (accession no. NM_152288) were amplified from cDNAs (purchased from Origene) using high fidelity Pfu Ultra High Fidelity polymerase (Stratagene) and subcloned into pCAGGS-IRES-GFP vector.”
# (§3) Patch-clamp experiments were performed in the tight-seal whole-cell configuration at 21-25° C. […] Capacitive currents were determined and corrected before each voltage ramp. Extracting the current amplitude at −80 mV from individual ramp current records assessed the low-resolution temporal development of currents. […] In the experiments of FIG. 2, 10 mM EGTA was used and in FIG. 3, [Ca^2+]i was buffered to defined levels using 20 mM Cs-BAPTA and appropriate concentrations of CaCl2 as calculated with WebMaxC. […]
# [6] = biological target: CRACM2 (Homo sapiens, UniProt Q96SN7); conditions: 50 μM 2-APB
# Method: as §2, with “described.” for “described. Full length human CRACM2 (accession no. NM_032831) and CRACM3 (accession no. NM_152288) were amplified from cDNAs (purchased from Origene) using high fidelity Pfu Ultra High Fidelity polymerase (Stratagene) and subcloned into pCAGGS-IRES-GFP vector.”
# as §3
# [7] = 50 μM 2-APB, 0 Ca Sodium Ringer
# CRACM1-E190A, sequence (Q96D31 whole entry E190A): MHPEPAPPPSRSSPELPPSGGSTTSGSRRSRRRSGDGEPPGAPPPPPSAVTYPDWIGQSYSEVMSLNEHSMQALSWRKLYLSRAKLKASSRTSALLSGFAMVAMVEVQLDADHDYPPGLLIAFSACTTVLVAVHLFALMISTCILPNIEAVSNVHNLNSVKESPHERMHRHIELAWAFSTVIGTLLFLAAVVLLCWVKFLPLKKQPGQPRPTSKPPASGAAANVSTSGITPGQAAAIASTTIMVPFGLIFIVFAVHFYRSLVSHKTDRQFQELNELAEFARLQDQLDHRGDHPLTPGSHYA
# CRACM1-E106D, sequence (Q96D31 whole entry E106D): as the sequence (Q96D31 whole entry E190A) above, with E106D, A190E counted along it
# CRACM2, sequence (Q96SN7 whole entry): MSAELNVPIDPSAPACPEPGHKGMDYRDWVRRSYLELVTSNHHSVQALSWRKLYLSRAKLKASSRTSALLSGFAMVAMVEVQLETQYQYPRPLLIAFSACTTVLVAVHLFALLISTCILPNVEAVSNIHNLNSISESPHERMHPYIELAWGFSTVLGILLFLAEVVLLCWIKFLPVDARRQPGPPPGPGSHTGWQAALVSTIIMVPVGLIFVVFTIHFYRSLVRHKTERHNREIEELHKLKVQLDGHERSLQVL
# CRACM1, sequence (Q96D31 whole entry): as the sequence (Q96D31 whole entry E190A) above, with A190E counted along it
smiles,measurement,setting,value
"NCCOB(c1ccccc1)c1ccccc1 [2-APB, 2-aminoethoxydiphenyl borate]",Current with 2-APB administered intracellularly,"[1]; 50 μM 2-APB in pipette solution, [Ca2+]i ~150 nM",no store-operated or 2-APB induced current was elicited
same,Reversal potential of the 2-APB-evoked CRACM3 current,"[1]; 50 μM 2-APB, CRACM3 alone, FIG. 6D",+30 mV
same,Response of CRACM1-E190A co-expressed with STIM1 to 2-APB,[2]; 50 μM 2-APB after IP3-induced CRAC currents fully activated,large facilitation followed by rapid inhibition
same,"Response of CRACM1-E190A expressed alone, without STIM1, to 2-APB","[2]; 50 μM 2-APB, wild-type HEK293, no IP3, [Ca2+]i ~150 nM","large, transient increase in both inward and outward current"
same,Reversal potential of the 2-APB-facilitated current,"[2]; CRACM1-E190A with STIM1, 50 μM 2-APB, +55 mV before 2-APB",+33 mV
same,Response of CRACM1-E106D expressed alone to 2-APB,"[3]; 50 μM 2-APB, [Ca2+]i 150 nM, no STIM1","rapid increase in inward current, followed by complete block, and a slow reactivation"
same,Reversal potential of the reactivated current after 2-APB,"[3]; CRACM1-E106D alone, +16 mV for the mutant without 2-APB",0 mV
same,Change of outward current on 2-APB application in Ca2+-free extracellular solution,[4]; [7],nearly tripled
same,Reduction of average inward current on 2-APB application in Ca2+-free extracellular solution versus Ca2+-containing solutions,[4]; [7],53%
same,Reversal potential with 2-APB in Ca2+-free extracellular solution,"[4]; 50 μM 2-APB, 0 Ca Sodium Ringer, shift from +94 mV",+10 mV
same,Effect of replacing extracellular Na+ with TEA+ on inward or outward currents induced by 2-APB,"[4]; 50 μM 2-APB, 10 mM Ca TEA Ringer",no significant effect
same,"Reversal potential after 2-APB application, internal K+","[4]; 50 μM 2-APB, IP3, K+-based internal solution",29 mV
same,Average 2-APB-mediated current compared to CRACM3 currents without STIM1 overexpression,"[4]; 50 μM 2-APB, STIM1 cells with CRACM3",approximately twice as large
same,Reversal potential with 2-APB in 10Ca/TEA Ringer,"[4]; 50 μM 2-APB, red I/V of FIG. 6G",+30 mV
same,Permeability ratio PCs/PCs in presence of 2-APB,"[4]; Goldman-Hodgkin-Katz analysis, 10Ca/TEA Ringer (red I/V), +30 mV",50
same,Permeability ratio PNs/PCs in presence of 2-APB,"[4]; Goldman-Hodgkin-Katz analysis, Ca2+-free conditions, Erev=+10 mV",1.5
same,Permeability ratio PCa/PNa in presence of 2-APB,"[4]; Goldman-Hodgkin-Katz analysis, normally in excess of 100-fold",33
same,Store- and STIM1-independent gating of wild-type CRACM1 by 2-APB,[5],largely resistant
same,Sensitivity of CRACM2 to 2-APB-mediated inhibition (versus CRACM1),[6],significantly less sensitive
